# Results reported in the supplement of paper PMC10307832.
# Tests used:
# Test in all cases: relative viability (nuclei count vs DMSO), 5 days (fraction); higher = more cells survive
# HARA = test system: HARA
# Procedure, shortened: (§1)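 After 5 days of treatment, lung cancer cells in 1536-well plates were fixed and stained in a single step (final 0.05% Triton X-100, 1% formaldehyde, 1 ug/ml Hoechst) and their nuclei counted on 4× images. Treatment had been applied by pin tool the day after seeding as one drug alone or as a fixed anchor-drug dose with five library-drug doses (not always all listed) in √10 steps. Relative viability is the nuclei count of treated wells divided by that of vehicle wells, and values are medians of duplicate plates.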
# NCI-H2126 = test system: NCI-H2126
# Procedure, shortened: as §1
# CAL-12T = test system: CAL-12T
# Procedure, shortened: as §1
# NCI-H1975 = test system: NCI-H1975
# Procedure, shortened: as §1
# NCI-H647 = test system: NCI-H647
# Procedure, shortened: as §1
# NCI-H460 = test system: NCI-H460
# Procedure, shortened: as §1
# NCI-H727 = test system: NCI-H727
# Procedure, shortened: as §1
# A-427 = test system: A-427
# Procedure, shortened: as §1
# NCI-H596 = test system: NCI-H596
# Procedure, shortened: as §1
# NCI-H1734 = test system: NCI-H1734
# Procedure, shortened: as §1
# NCI-H520 = test system: NCI-H520
# Procedure, shortened: as §1
# BEN = test system: BEN
# Procedure, shortened: as §1
# NCI-H1666 = test system: NCI-H1666
# Procedure, shortened: as §1
# NCI-H2085 = test system: NCI-H2085
# Procedure, shortened: as §1
# NCI-H838 = test system: NCI-H838
# Procedure, shortened: as §1
# RERF-LC-KJ = test system: RERF-LC-KJ
# Procedure, shortened: as §1
# LOU-NH91 = test system: LOU-NH91
# Procedure, shortened: as §1
# NCI-H1944 = test system: NCI-H1944
# Procedure, shortened: as §1
# NCI-H1651 = test system: NCI-H1651
# Procedure, shortened: as §1
compound,measurement,setting,value
CN1CCN(CCOc2cc(OC3CCOCC3)c3c(Nc4c(Cl)ccc5c4OCO5)ncnc3c2)CC1 [Saracatinib] + CC1(C)CCC(c2ccc(Cl)cc2)=C(CN2CCN(c3ccc(C(=O)NS(=O)(=O)c4ccc(N[C@H](CCN5CCOCC5)CSc5ccccc5)c(S(=O)(=O)C(F)(F)F)c4)cc3)CC2)C1 [Navitoclax] (partner 0.5 µM),relative viability,HARA; first compound 0.02 µM,1.2
same,relative viability,HARA; first compound 0.6325 µM,1.1
same,relative viability,HARA; first compound 2 µM,0.984
same,relative viability,NCI-H2126; first compound 0.02 µM,0.876
same,relative viability,NCI-H2126; first compound 0.2 µM,0.747
same,relative viability,NCI-H2126; first compound 0.6325 µM,0.887
same,relative viability,NCI-H2126; first compound 2 µM,0.684
same,relative viability,CAL-12T; first compound 0.02 µM,1.17
same,relative viability,CAL-12T; first compound 0.2 µM,1.29
same,relative viability,CAL-12T; first compound 0.6325 µM,1.42
same,relative viability,CAL-12T; first compound 2 µM,1.27
same,relative viability,NCI-H1975; first compound 0.02 µM,1.17
same,relative viability,NCI-H1975; first compound 0.6325 µM,1.06
same,relative viability,NCI-H1975; first compound 2 µM,0.749
same,relative viability,NCI-H647; first compound 0.02 µM,1.15
same,relative viability,NCI-H647; first compound 0.2 µM,0.959
same,relative viability,NCI-H647; first compound 0.6325 µM,1.18
same,relative viability,NCI-H647; first compound 2 µM,0.764
same,relative viability,NCI-H460; first compound 0.02 µM,1.16
same,relative viability,NCI-H460; first compound 0.2 µM,0.457
same,relative viability,NCI-H460; first compound 0.6325 µM,1.22
same,relative viability,NCI-H460; first compound 2 µM,0.813
same,relative viability,NCI-H727; first compound 0.02 µM,0.499
same,relative viability,NCI-H727; first compound 0.2 µM,0.285
same,relative viability,NCI-H727; first compound 0.6325 µM,0.48
same,relative viability,NCI-H727; first compound 2 µM,0.225
same,relative viability,A-427; first compound 0.02 µM,0.999
same,relative viability,A-427; first compound 0.2 µM,0.854
same,relative viability,A-427; first compound 0.6325 µM,1
same,relative viability,A-427; first compound 2 µM,0.918
same,relative viability,NCI-H596; first compound 0.02 µM,0.952
same,relative viability,NCI-H596; first compound 0.2 µM,0.711
same,relative viability,NCI-H596; first compound 0.6325 µM,0.925
same,relative viability,NCI-H596; first compound 2 µM,0.682
same,relative viability,NCI-H1734; first compound 0.02 µM,0.854
same,relative viability,NCI-H1734; first compound 0.6325 µM,0.767
same,relative viability,NCI-H1734; first compound 2 µM,0.697
same,relative viability,NCI-H520; first compound 0.02 µM,1.1
same,relative viability,NCI-H520; first compound 0.2 µM,0.993
same,relative viability,NCI-H520; first compound 0.6325 µM,0.753
same,relative viability,NCI-H520; first compound 2 µM,0.583
same,relative viability,BEN; first compound 0.02 µM,0.0867
same,relative viability,BEN; first compound 0.2 µM,0.0774
same,relative viability,BEN; first compound 0.6325 µM,0.0714
same,relative viability,BEN; first compound 2 µM,0.0584
same,relative viability,NCI-H1666; first compound 0.02 µM,1.04
same,relative viability,NCI-H1666; first compound 0.2 µM,0.928
same,relative viability,NCI-H1666; first compound 0.6325 µM,1.06
same,relative viability,NCI-H1666; first compound 2 µM,0.667
same,relative viability,NCI-H2085; first compound 0.02 µM,1.12
same,relative viability,NCI-H2085; first compound 0.2 µM,1.05
same,relative viability,NCI-H2085; first compound 0.6325 µM,1.19
same,relative viability,NCI-H2085; first compound 2 µM,1.07
same,relative viability,NCI-H838; first compound 0.02 µM,1.15
same,relative viability,NCI-H838; first compound 0.2 µM,1.02
same,relative viability,NCI-H838; first compound 0.6325 µM,1.03
same,relative viability,NCI-H838; first compound 2 µM,0.918
same,relative viability,RERF-LC-KJ; first compound 0.02 µM,0.817
same,relative viability,RERF-LC-KJ; first compound 0.2 µM,1.17
same,relative viability,RERF-LC-KJ; first compound 0.6325 µM,0.959
same,relative viability,RERF-LC-KJ; first compound 2 µM,0.934
same,relative viability,LOU-NH91; first compound 0.02 µM,0.678
same,relative viability,LOU-NH91; first compound 0.2 µM,0.418
same,relative viability,LOU-NH91; first compound 0.6325 µM,0.405
same,relative viability,LOU-NH91; first compound 2 µM,0.361
same,relative viability,NCI-H1944; first compound 0.02 µM,1.14
same,relative viability,NCI-H1944; first compound 0.6325 µM,0.974
same,relative viability,NCI-H1944; first compound 2 µM,0.718
same,relative viability,NCI-H1651; first compound 0.02 µM,1.06
same,relative viability,NCI-H1651; first compound 0.2 µM,0.681
same,relative viability,NCI-H1651; first compound 0.6325 µM,0.998
same,relative viability,NCI-H1651; first compound 2 µM,1.03
